Measured values from publication PMC8042727, “Apoptosis-like cell death upon kinetoplastid induction by compounds isolated from the brown algae Dictyota spiralis” (Parasites & Vectors, 2021).

How the values were obtained:
Type in all cases: cell-based
[1] = tested on: Leishmania amazonensis promastigotes; experiment: Plasma membrane permeability assay (SYTOX Green); conditions: L. amazonensis, IC90, up to 6 h, compared to Triton X-100 (100%)
Protocol: This assay was performed to evaluate the cell’s membrane permeability. Following the manufacturer’s recommendations, promastigotes of L. amazonensis and epimastigotes of T. cruzi were incubated in phosphate saline buffer in the presence of 1 μM of SYTOX® Green nucleic acid stain (Life Technologies, Waltham, MA, USA) and the IC90 of the different test compounds to be tested. Variation in fluorescence was measured every 15 min for 6 h using the Enspire multimode plate reader at excitation/emission wavelengths of 485/520. The percentage of relative permeabilization was calculated in reference to complete permeabilization realized by adding Triton X-100 (Sigma-Aldrich). In addition, both L. amazonensis and T. cruzi cells were incubated for 24 h with compounds 1–3, miltefosine and benznidazole, and images were captured using the Evos cell imaging system.
One of the detectable cellular events of a necrotic cell death is the rupture of the plasma membrane. This event can be detected by evaluating plasma membrane permeabilization. We performed the SYTOX Green dye assay to detect effect of compounds 1–3 on membrane permeability. This green-fluorescence dye has a high affinity for DNA. Triton X-100 was used as a positive control in light of its known effect to cause 100% membrane permeabilization. Values of fluorescence were measured each 15 min for 6 h.

Trypanosoma cruzi = experiment: ATP level (CellTiter-Glo); conditions: T. cruzi, IC90, 24 h, relative to negative control
Protocol: The CellTiter-Glo® luminescent cell viability assay (Promega, WI, USA) was used to quantify the adenosine triphosphate (ATP) concentration. Cells of the kinetoplastid strains (for both L. amazonensis [2 × 10^6 cells/ml] and T. cruzi [5 × 10^5cells/ml]) were incubated for 24 h with the compounds to be tested, at IC90 and 26 °C. After incubation, the cells were centrifuged and resuspended in 100 μl. To this volume, we added 100 μl of the reactive in white 96-well plates. After incubation, the luminescence signal was measured using the Enspire multimode plate reader. The decrease in ATP level was expressed as a percentage relative to the negative control. Miltefosine and benznidazole were tested as the positive control for L. amazonensis and T. cruzi, respectively.

[2] = tested on: Leishmania amazonensis amastigotes; experiment: Anti-amastigotes assay (intra-macrophagic stage, J774A.1); conditions: for Selectivity index: CC50 murine macrophages / IC50 amastigote; for IC50: J774.A1, Leishmania amazonensis, intracellular in J774A.1, read-out: IC50: amastigote
Protocol: The three molecules 1-3 were tested against the intra-macrophagic stage of L. amazonensis as previously described. Briefly, in a 96-well, flat-bottom plate, macrophages of the J774A.1 cell line (American Type Culture Collection #TIB-67) were cultured at a density of 2 × 10^5 cells/ml in RPMI 1640 medium supplemented with 10% heat-inactivated FBS and incubated for 1 h at 37 °C in a 5% CO2 atmosphere to allow almost complete attachment of the cells. The macrophages were then infected with L. amazonensis promastigotes in the stationary phase (7-day-old culture) at a ratio of 1:10 (macrophage:parasite) at a concentration of 2 × 10^6 cells/ml and incubated at 37 °C in 5% CO2 for 24 h. Wells were washed with medium to remove external promastigotes. Thereafter, the infected macrophages were treated with the serially diluted concentrations of the pure compounds for 24 h, following which the medium was removed carefully and replaced by 30 μl of new medium containing 0.05% sodium dodecyl sulfate and the plate shaken for 30 s. Subsequently, 170 μl of Schneider’s medium was added to each well to give a final volume of 200 μl, and 20 μl of AlamarBlue® was added to the plate; the plate was then incubated at 26 °C for 72 h, following which the plates were analyzed using the same protocol as for the promastigotes assay.

[3] = Cytotoxicity on macrophages (AlamarBlue, 24 h); conditions: mouse, J774A.1 macrophages, J774A.1, 24 h, read-out: CC50: murine macrophages
Protocol: Cytotoxicity of the tested molecules was evaluated after 24 h using macrophages of the murine cell line J774.A1 (American Type Culture Collection #TIB-67). The cells were maintained in DMEM medium at 37 °C in a 5% CO2 humidified incubator. The viability of the macrophages was determined with the AlamarBlue assay and the emitted fluorescence was assayed in an Enspire microplate reader (PerkinElmer Inc.) at 570/585 nm. Briefly, 50 µl of macrophages was placed in a 96-well flat bottom plate at a density of 2 × 10^5/ml in RPMI medium supplemented with 10% FBS without phenol. Cells were allowed to adhere for 15 min, and their progress was checked using a Leika inverted microscope (Leika Camera AG, Wetzlar, Germany). At the same time, a serially dilution of the test compounds was made in a deep 96-well plate with the same medium, and then 50 µl of each serially diluted molecule was added to each well of the 96-well flat bottom plate. Finally, 10% of AlamarBlue was added to each well. The plates were incubated at 37 °C in 5% CO2 for 24 h. Dose–response curves were plotted and the 50% cytotoxic concentrations (CC50) were obtained. The analyses were performed in triplicate.

Leishmania amazonensis = experiment: Oxidative stress / ROS accumulation (CellROX Deep Red); conditions: L. amazonensis, IC90, 24 h
Protocol: The reagent used for this assay was a fluorogenic probe to measure cellular oxidative stress upon oxidation by reactive oxygen species (ROS). To perform the test, cells were incubated with the compounds to be tested, at IC90 for 24 h. The cells were centrifuged and resuspended in a volume of 50 μl, following which CellROX™ Deep Red oxidative stress reagent (Thermo-Fisher Scientific) was added to 96-well plates at […]. The plates were then incubated for 30 min at 37 °C. After incubation, the results were analyzed by cell imaging using the Evos cell imaging system. Cells treated with different compounds were compared with untreated control cells and the positive control. Fluorescence intensity was also measured using the Enspire multimode plate reader at excitation/emission wavelengths of 640/665 nm. Accumulation ROS at the cellular level is a good indicator of oxidative stress and is precursor to a chain reaction leading damage at the cellular level to proteins, nucleic acids, lipids, membrane and organelles. These cellular alterations can lead to activation of the cell death process. As such, ROS play an important role in cell signaling and the apoptosis pathway. An intracellular excess of ROS can be detected by the cell-permeable CellROX™ Deep Red reagent, which is a fluorogenic ROS sensor.

SMILES | percentage of membrane permeabilization [1] [%] | decrease in ATP concentration (Trypanosoma cruzi) [%] | Selectivity index [2] | IC50 [2] [µM] | CC50 at 24 h [3] [µM] | ROS accumulation (fluorescence vs negative control) (Leishmania amazonensis)
CC(C)=CCC[C@](C)(O)[C@@H]1CC[C@@H](C)[C@@H]2CC=C(C)[C@H]2[C@@H]1O [Compound 1, pachydictyol C] | < 20 | > 70 | 37.76 | 0.97 ± 0.13 | 37 ± 2.74 | more remarkable
C=C(C)[C@H]1CC[C@]2(C)C[C@@H]3O[C@@]3(C)CC/C=C(\C)CC[C@@H]12 [Compound 3, 3,4-epoxy-7,18-dolabelladiene] | 35 | > 95 | 18.02 | 3.88 ± 0.17 | 69.98 ± 0.13 | more remarkable
C=C1CC[C@@H]([C@@](C)(O)CCC=C(C)C)[C@@H](O)[C@@H]2C(C)=CC[C@@H]12 [Compound 2, dictyol E] | < 20 | > 95 | 25.56 | 2.03 ± 0.22 | 52.1 ± 6.63 | slight increase in fluorescence but the increase was not significant
